One substance from PMC5602100, “Retro analog concept: comparative study on physico-chemical and biological properties of selected antimicrobial peptides” (Amino Acids, 2017) can be followed below.

The subject of one series is E. coli ATCC 23506. The following applies: broth microdilution (CLSI), 5 × 10^5 CFU/mL in Mueller–Hinton Broth, 0.125–256 µg/mL, 18 h at 37 °C, triplicate. On the procedure: (§1) The minimal inhibitory concentrations (MICs) for bacteria and fungi were determined by the broth microdilution method according to the Clinical and Laboratory Standards Institute (CLSI) protocol (Clinical and Laboratory Standards Institute (CLSI) [2002], [2012]). For this purpose, the initial inoculums of bacteria (5 × 10^5 CFU/mL) in Mueller–Hinton Broth (Biocorp, Warsaw, Poland) were exposed to the ranging concentrations of compounds (0.125–256 µg/mL) and incubated for 18 h at 37 °C. In case of fungi, the initial inoculums of 2 × 10^3 CFU/mL in RPMI-1640 (Sigma-Aldrich, Steinheim, Germany) were exposed to the ranging concentrations of compounds (0.5–256 µg/mL) and incubated for 24 h at 37 °C. The experiments were conducted on 96-well microtiter plates, with the final volume of 100 µL. Cell densities were adjusted spectrophotometrically (Multiskan™ GO Microplate Spectrophotometer, Thermo Scientific) at the wavelengths of 600 nm for bacteria and 530 nm for fungi. The MIC was taken as the lowest drug concentration at which a noticeable growth of microorganisms was inhibited. Reference strains of bacteria: Escherichia coli ATCC 25922, E. coli ATCC 23506, Enterococcus faecalis PCM 2673, Klebsiella pneumoniae ATCC 700603, Pseudomonas aeruginosa ATCC 9027, Staphylococcus aureus ATCC 25923, S. aureus 9144, Streptococcus pneumoniae ATCC 49619, and fungi: Aspergillus niger ATCC 16404, Candida albicans ATCC 10231, and C. glabrata ATCC 15126 were obtained from Polish Collection of Microorganisms (PCM, Polish Academy of Sciences, Wroclaw, Poland) and from American Type Culture Collection (ATCC). All experiments were conducted in triplicate.
In general terms: Broth dilution looks for growth in wells or tubes with falling amounts of substance.

Series [1] relates to K. pneumoniae ATCC 700603. Conditions: broth microdilution (CLSI), 5 × 10^5 CFU/mL in Mueller–Hinton Broth, 0.125–256 µg/mL, 18 h at 37 °C, triplicate. The protocol: as §1
A further series has as its system E. coli ATCC 25922. The following applies: broth microdilution (CLSI), 5 × 10^5 CFU/mL in Mueller–Hinton Broth, 0.125–256 µg/mL, 18 h at 37 °C, triplicate. On the procedure:
as §1

The subject of the next series is P. aeruginosa ATCC 9027. Conditions: broth microdilution (CLSI), 5 × 10^5 CFU/mL in Mueller–Hinton Broth, 0.125–256 µg/mL, 18 h at 37 °C, triplicate. On the procedure:
as §1

For another series, the system named is C. glabrata ATCC 15126. The following applies: broth microdilution (CLSI), 2 × 10^3 CFU/mL in RPMI-1640, 0.5–256 µg/mL, 24 h at 37 °C, triplicate. The protocol: as §1
In a further series the test system is A. niger ATCC 16404. The following applies: broth microdilution (CLSI), 2 × 10^3 CFU/mL in RPMI-1640, 0.5–256 µg/mL, 24 h at 37 °C, triplicate. The protocol:
as §1

Another series deals with S. aureus ATCC 9144. The following applies: broth microdilution (CLSI), 5 × 10^5 CFU/mL in Mueller–Hinton Broth, 0.125–256 µg/mL, 18 h at 37 °C, triplicate. The protocol: as §1
In another series the test system is C. albicans ATCC 10231. The following applies: broth microdilution (CLSI), 2 × 10^3 CFU/mL in RPMI-1640, 0.5–256 µg/mL, 24 h at 37 °C, triplicate. The protocol:
as §1

The subject of the next series is E. faecalis PCM 2673. Conditions: broth microdilution (CLSI), 5 × 10^5 CFU/mL in Mueller–Hinton Broth, 0.125–256 µg/mL, 18 h at 37 °C, triplicate. On the procedure:
as §1

In a further series the test system is S. aureus ATCC 25923. Conditions: broth microdilution (CLSI), 5 × 10^5 CFU/mL in Mueller–Hinton Broth, 0.125–256 µg/mL, 18 h at 37 °C, triplicate. On the procedure: as §1
The test system of another series is S. pneumoniae ATCC 49619. The following applies: broth microdilution (CLSI), 5 × 10^5 CFU/mL in Mueller–Hinton Broth, 0.125–256 µg/mL, 18 h at 37 °C, triplicate. On the procedure:
as §1

Series [2] deals with human red blood cells (RBCs). Description: Hemolysis assay. It counts as cell-based. The following applies: fresh human RBCs 4% (v/v) in PBS, 60 min at 37 °C, absorbance 540 nm, 100% control 1% Triton-X 100, triplicate. The protocol:
The hemolysis assay was conducted according to the procedure described previously in the literature (Avrahami and Shai [2004]). Fresh human red blood cells (RBCs) with EDTA as anticoagulant were rinsed three times with a phosphate-buffer saline (PBS) by centrifugation at 800×g for 10 min and resuspended in PBS. Serial dilution of peptides (1–512 µg/mL) was conducted in PBS on 96-well plates. Then the stock solution of RBCs was added to reach a final volume of 100 µL with a 4% concentration of erythrocytes (v/v). The control wells for 0 and 100% hemolysis consisted of RBCs suspended in PBS and 1% of Triton-X 100, respectively. Subsequently, the plates were incubated for 60 min at 37 °C and then centrifuged at 800×g for 10 min at 4 °C (Sorvall ST 16R Centrifuge, Thermo Scientific). After centrifugation the supernatant was carefully […] to new microtiter plates and the release of hemoglobin was monitored by measurement of absorbance at 540 nm (Multiskan™ GO Microplate Spectrophotometer, Thermo Scientific). All experiments were conducted in triplicate.

Ends that are not written are not given here. A value given as a limit tells only on which side of the number the result lay.

Consider LVKLVAGIKKFLKWK-NH2 [r-CAMEL], for which, in the series with E. coli ATCC 23506, the “MIC, E. coli ATCC 23506” value is recorded as 64 µg/mL. Further, the “MIC, K. pneumoniae ATCC 700603” value in [1] came out at 2 µg/mL. In the series on E. coli ATCC 25922, the “MIC, E. coli ATCC 25922” value came out at 128 µg/mL. Further, the “MIC, P. aeruginosa ATCC 9027” value with P. aeruginosa ATCC 9027 is 8 µg/mL. The “MIC, C. glabrata ATCC 15126” value against C. glabrata ATCC 15126 was more than 256 µg/mL. Besides, the “MIC, A. niger ATCC 16404” value with A. niger ATCC 16404 came out at 256 µg/mL. Moreover, the “MIC, S. aureus ATCC 9144” value against S. aureus ATCC 9144 was found to be 64 µg/mL. Also, the “MIC, C. albicans ATCC 10231” value in the series with C. albicans ATCC 10231 was 256 µg/mL. Also, the “MIC, E. faecalis PCM 2673” value in the series on E. faecalis PCM 2673 stood at 64 µg/mL. Moreover, the “MIC, S. aureus ATCC 25923” value with S. aureus ATCC 25923 is on record as 128 µg/mL. For the same substance, the “MIC, S. pneumoniae ATCC 49619” value in the series on S. pneumoniae ATCC 49619 turned out to be 128 µg/mL. Besides, the “rate of hemolysis at MIC concentrations” value in series [2] is “below 10%”.
